This note sets out measurements from patent US20100160255A1, “SPIRO-CYCLIC COMPOUND” (Takeda Pharmaceutical Company Limited, priority 2005, published 2010).

The target in one test is T1, human ACC2 (Homo sapiens, UniProt O00763).
T1 construct: made in house; host or cells: SF-9 insect cells, recombinant baculovirus BAC-ACC2(Nd)
Briefly: ACC2 inhibitory activity (malachite green absorbance assay, recombinant ACC2(Nd)). The test is classed as biochemical. As to conditions: Table 9; recombinant human ACC2(Nd), N terminal deletion; 30° C.; absorbance 620 nm; read-out: IC50 (ACC2 inhibitory activity). On the procedure: The ACC2 inhibitory activity of the compound of the present invention was evaluated by the following method.
Human ACC2 gene was cloned by PCR using human skeletal muscle cDNA library (Clontech) as a template, and Primer 1 and Primer 2 shown below. Primer 1 and Primer 2 were prepared by adding recognition sequence of restriction enzymes SalI and XbaI based on the information of the base sequence (Genbank Accession U89344) of human ACC2 gene.
PCR was performed using Pyrobest DNA polymerase (TAKARA BIO INC.). The obtained PCR product was cloned to pT7 Blue vector (Novagen) which was, after confirmation of the base sequence, digested with restriction enzymes SalI and XbaI. The obtained DNA fragment was inserted into pFAST-BacHTa (Invitrogen) digested with restriction enzymes SalI and XbaI to give expression plasmid ACC2/pFAST-BacHTa.
A plasmid for expression of ACC2 free of mitochondrial targeting sequence was prepared by PCR using the expression plasmid as a template, and Primer 3 and Primer 4 shown below.
PCR was performed using Pyrobest DNA polymerase (TAKARA BIO INC.). The obtained PCR product was cloned to pT7 Blue vector (Novagen) which was, after confirmation of the base sequence, digested with restriction enzymes SalI and AflII. The obtained DNA fragment was inserted into pFAST-BacHTa (Invitrogen) digested with restriction enzymes SalI and AflII to give expression plasmid ACC2mito7/pFAST-BacHTa.
Using the expression plasmid and BAC-TO-BAC Baculovirus Expression System (Invitrogen), virus stock BAC-ACC2 of recombinant Baculovirus (N terminal deletion (hereinafter Nd)) was prepared.
SF-9 cells (Invitrogen) were sown at 0.5×10^6 cells/mL to insect cell culture medium (2 L, Sf-900II SFM medium (Invitrogen) containing 10% fetal bovine serum (Trace), 50 mg/L gentamicin (Invitrogen) and 0.1% Pluronic F-68 (Invitrogen)), and shaking culture was performed using a Wave Bioreactor (Wave) under the conditions of 27° C., 20 rpm, rocking angle of 6° and oxygen concentration of 30%.
On day 4 of the culture, 3 L of an insect cell culture medium was added, the rocking angle was set to 8°, and the cells were further cultured. On day 5 of the culture, the recombinant Baculovirus BAC-ACC2(Nd) (100 mL) was added, 5 L of the insect cell culture medium was further added, the rocking angle was set to 11°, and the cells were cultured for 3 days. The culture medium was centrifuged at 1000×g for 10 min to give virus-infected cells. The infected cells were washed with phosphate buffered saline (Invitrogen) and centrifuged under the same conditions, and the obtained cells were cryopreserved at −80° C.
The cryopreserved cells were thawed in ice, suspended in 25 mM HEPES buffer (900 mL, pH 7.5) containing 10% Glycerol, 0.13 M NaCl, 1 mM EDTA, 25 mM sodium β-glycerophosphate, 1 mM sodium orthovanadate, added with Complete Protease Inhibitor (Boehringer). The obtained suspension was homogenized 3 times with a Polytron homogenizer (Kinematica) at 20,000 rpm for 30 seconds. The obtained cell disrupt solution was clarified by centrifugation at 31000×g for 60 min and filtrated using a 0.45 μm filter. The filtrate was passed through a column packed with Ni-NTA Super Flow Gel (QIAGEN, 60 mL) at a flow rate of about 5 mL/min. The column was washed with buffer A (50 mM HEPES containing 0.3M NaCl, pH 7.5), further washed with buffer A containing 20 mM Imidazole, and eluted with buffer A containing 100 mM Imidazole. The eluate was concentrated with Vivaspin 20 (Vivascience) having a molecular weight cut off of 30 K. The obtained concentrate was dialyzed against 50 mM HEPES (pH7.5) containing 10 mM MgCl2, 2 mM dithiothreitol, 10 mM tripotassium citrate and 0.3M NaCl. The dialysate was filtered through a 0.22 μm filter to give ACC2(Nd). The obtained ACC2(Nd) was cryopreserved at −80° C. […]

The target in a further test is T2, human ACC1 (Homo sapiens, UniProt Q13085).
T2 construct: made in house; host or cells: SF-9 insect cells, recombinant baculovirus BAC-ACC1
Briefly: ACC1 inhibitory activity (malachite green absorbance assay, recombinant enzyme). Type of test: biochemical. On the procedure: The ACC1 inhibitory activity of the compound of the present invention was evaluated by the following method.
Human ACC1 gene was cloned by PCR using human liver cDNA library (Clontech) as a template, and Primer 1 and Primer 2 shown below. Primer 1 and Primer 2 were prepared by adding recognition sequence of restriction enzymes SalI and NotI based on the information of the base sequence (Genbank Accession U19822) of human ACC1 gene.
PCR was performed using Pyrobest DNA polymerase (TAKARA BIO INC.). The obtained PCR product was cloned to pT7 Blue vector (Novagen) which was, after confirmation of the base sequence, digested with restriction enzymes SalI and NotI. The obtained DNA fragment was inserted into pFAST-BacHTc (Invitrogen) digested with restriction enzymes SalI and NotI to give expression plasmid ACC1/pFAST-BacHTc.
Using the expression plasmid and BAC-TO-BAC Baculovirus Expression System (Invitrogen), virus stock BAC-ACC1 of recombinant Baculovirus was prepared.
SF-9 cells (Invitrogen) were sown at 1×10^6 cells/mL to insect cell culture medium (1 L, Sf-900II SFM medium (Invitrogen) containing 10% fetal bovine serum (Trace), 50 mg/L gentamicin (Invitrogen) and 0.1% Pluronic F-68 (Invitrogen)), and shaking culture was performed using a 2 L volume Erlenmeyer flask at 27° C., 100 rpm.
After culturing for 24 hr, the recombinant Baculovirus BAC-ACC1 (10 mL) was added, and the mixture was further cultured for 3 days. The culture medium was centrifuged at 1000×g for 5 min to give virus-infected cells. The infected cells were washed with phosphate buffered saline (Invitrogen) and centrifuged under the same conditions, and the obtained cells were cryopreserved at −80° C.
The cryopreserved cells were thawed in ice, suspended in 25 mM HEPES buffer (100 mL, pH 7.5) containing 10% Glycerol, 0.13 M NaCl, 1 mM EDTA, 25 mM sodium β-glycerophosphate, 1 mM sodium orthovanadate, added with Complete Protease Inhibitor (Boehringer). The obtained suspension was homogenized 3 times with a Polytron homogenizer (Kinematica) at 20,000 rpm for 30 seconds. The obtained cell disrupt solution was clarified by centrifugation at 185700×g for 50 min and filtrated using a 0.45 μm filter. The filtrate was passed through a column packed with Ni-NTA Super Flow Gel (QIAGEN, 12 mL) at a flow rate of about 5 mL/min. The column was washed with buffer A (50 mM HEPES containing 0.3M NaCl, pH 7.5), further washed with buffer A containing 20 mM Imidazole, and eluted with buffer A containing 100 mM Imidazole. The eluate was concentrated with Vivaspin 20 (Vivascience) having a molecular weight cut off of 30 K. The obtained concentrate was dialyzed using Sephadex G-25 (Amersham Bioscience K.K., 358 mL) equilibrated with 50 mM HEPES (pH7.5) containing 10 mM MgCl2, 2 mM dithiothreitol, 10 mM tripotassium citrate and 0.3M NaCl. The dialysate was concentrated with Vivaspin 20 (Vivascience) having a molecular weight cut off of 30 K and the concentrate was filtered through a 0.22 μm filter to give ACC1. The obtained ACC1 was cryopreserved at −80° C.
ACC1 (0.93 mg/ml) obtained in (2) above was diluted to a concentration of 8 μg/ml with an enzyme reaction buffer (50 mM HEPES (pH7.5), 10 mM MgCl2, 10 mM tripotassium citrate, 2 mM dithiothreitol, 0.75 mg/ml fatty acid free BSA), and added to each well of a 384 well assay plate (Nunc 265196) by 10 μl. […]

Setting [1] is: Table 8, recombinant human ACC1, 30° C., absorbance 620 nm, read-out: IC50 (ACC1 inhibitory activity).
The mark [2] stands for this setting: Experimental Example 3, same manner as Experimental Example 1, read-out: IC50 values (ACC1 inhibitory activity).

Read-outs that look alike come from different tables or passages of the source. Some results are limits rather than exact numbers.

T1 sequence (O00763 117-2458 limits assumed): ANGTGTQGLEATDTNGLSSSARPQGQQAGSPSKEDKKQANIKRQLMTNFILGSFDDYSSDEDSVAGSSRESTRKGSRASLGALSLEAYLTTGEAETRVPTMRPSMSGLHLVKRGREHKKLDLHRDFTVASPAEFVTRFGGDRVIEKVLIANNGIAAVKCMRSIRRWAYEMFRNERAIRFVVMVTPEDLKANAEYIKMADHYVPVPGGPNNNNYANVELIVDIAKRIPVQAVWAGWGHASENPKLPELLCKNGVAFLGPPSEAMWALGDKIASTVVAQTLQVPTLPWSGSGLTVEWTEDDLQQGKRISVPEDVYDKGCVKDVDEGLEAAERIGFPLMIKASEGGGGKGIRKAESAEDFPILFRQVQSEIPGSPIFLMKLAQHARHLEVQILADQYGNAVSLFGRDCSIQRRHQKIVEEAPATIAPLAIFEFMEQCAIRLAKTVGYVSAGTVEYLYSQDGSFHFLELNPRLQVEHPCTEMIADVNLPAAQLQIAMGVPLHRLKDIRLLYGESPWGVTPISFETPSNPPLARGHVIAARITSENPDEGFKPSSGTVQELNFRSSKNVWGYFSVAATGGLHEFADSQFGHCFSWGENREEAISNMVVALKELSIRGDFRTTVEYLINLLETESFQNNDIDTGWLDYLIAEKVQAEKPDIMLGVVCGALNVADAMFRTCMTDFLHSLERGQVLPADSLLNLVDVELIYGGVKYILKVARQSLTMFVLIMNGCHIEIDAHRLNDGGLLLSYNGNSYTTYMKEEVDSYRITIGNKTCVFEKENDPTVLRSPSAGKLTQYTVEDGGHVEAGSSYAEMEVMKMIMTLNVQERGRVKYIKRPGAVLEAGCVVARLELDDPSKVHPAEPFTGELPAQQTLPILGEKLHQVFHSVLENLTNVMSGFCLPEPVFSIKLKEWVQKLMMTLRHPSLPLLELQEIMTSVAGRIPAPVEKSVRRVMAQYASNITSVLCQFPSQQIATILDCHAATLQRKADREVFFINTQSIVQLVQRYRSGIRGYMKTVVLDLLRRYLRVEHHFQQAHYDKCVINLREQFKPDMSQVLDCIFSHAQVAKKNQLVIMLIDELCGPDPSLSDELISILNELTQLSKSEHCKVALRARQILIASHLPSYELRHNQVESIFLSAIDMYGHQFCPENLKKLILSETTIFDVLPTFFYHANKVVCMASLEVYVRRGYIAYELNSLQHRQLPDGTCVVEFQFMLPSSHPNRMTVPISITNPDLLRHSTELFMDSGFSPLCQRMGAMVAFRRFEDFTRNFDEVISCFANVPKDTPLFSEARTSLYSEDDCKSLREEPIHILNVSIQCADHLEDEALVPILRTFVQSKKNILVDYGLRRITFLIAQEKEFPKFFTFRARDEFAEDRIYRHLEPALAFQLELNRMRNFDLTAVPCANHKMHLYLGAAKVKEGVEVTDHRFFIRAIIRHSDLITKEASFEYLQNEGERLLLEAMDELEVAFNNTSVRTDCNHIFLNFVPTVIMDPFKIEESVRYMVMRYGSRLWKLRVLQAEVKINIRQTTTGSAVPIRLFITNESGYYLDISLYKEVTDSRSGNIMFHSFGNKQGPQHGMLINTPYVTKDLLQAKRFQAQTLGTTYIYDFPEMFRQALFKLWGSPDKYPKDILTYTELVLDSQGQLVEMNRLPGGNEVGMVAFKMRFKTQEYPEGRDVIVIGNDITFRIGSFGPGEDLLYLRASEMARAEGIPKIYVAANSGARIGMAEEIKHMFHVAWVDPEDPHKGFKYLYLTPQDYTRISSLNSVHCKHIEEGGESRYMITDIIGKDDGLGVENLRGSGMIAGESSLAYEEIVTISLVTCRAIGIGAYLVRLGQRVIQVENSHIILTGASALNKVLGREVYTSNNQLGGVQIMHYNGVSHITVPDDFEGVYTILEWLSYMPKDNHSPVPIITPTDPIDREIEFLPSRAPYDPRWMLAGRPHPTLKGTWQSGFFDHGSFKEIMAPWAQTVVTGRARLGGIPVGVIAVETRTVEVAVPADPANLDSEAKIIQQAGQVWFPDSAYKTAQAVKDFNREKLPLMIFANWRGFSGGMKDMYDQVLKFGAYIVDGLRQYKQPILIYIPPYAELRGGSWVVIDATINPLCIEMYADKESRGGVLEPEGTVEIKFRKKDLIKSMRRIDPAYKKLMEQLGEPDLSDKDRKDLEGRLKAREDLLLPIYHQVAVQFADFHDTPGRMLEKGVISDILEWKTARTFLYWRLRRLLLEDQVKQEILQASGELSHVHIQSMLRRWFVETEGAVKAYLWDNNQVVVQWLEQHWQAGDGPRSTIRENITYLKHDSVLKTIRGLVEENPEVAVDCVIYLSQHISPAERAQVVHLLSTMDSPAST

One may read the IC50 as the concentration that inhibits the measured activity by half. For the molecule `CC(C)N1C(=O)OC2(CCCN(C3CCN(C(=O)c4c(NC(N)=O)sc5ccccc45)CC3)C2)C1=O` (stereo not shown) [Example 335, N-(3-{[4-(3-isopropyl-2,4-dioxo-1-oxa-3,7-diazaspiro[4.5]dec-7-yl)piperidin-1-yl]carbonyl}-1-benzothien-2-yl)urea], the IC50 on human ACC2 was found to be 31 nM; at human ACC1 (setting [1]) it was 260 nM.

Consider `CCN1CCC2(CCCN(C3CCN(C(=O)c4c(NC(=O)NC)sc5ccccc45)CC3)C2)C1=O` (stereo not shown) [Example 339, N-(3-{[4-(2-ethyl-1-oxo-2,7-diazaspiro[4.5]dec-7-yl)piperidin-1-yl]carbonyl}-1-benzothien-2-yl)-N′-methylurea], for which the figures for the half-inhibitory concentration (IC50) on human ACC2 and on human ACC1 (setting [1]) were 45 nM and 300 nM, respectively.

For `CCN1C(=O)CC2(CCCN(C3CCN(C(=O)c4c(NC(N)=O)sc5ccccc45)CC3)C2)C1=O` (stereo not shown) [Example 340, 1-(3-{[4-(2-ethyl-1,3-dioxo-2,7-diazaspiro[4.5]dec-7-yl)piperidin-1-yl]carbonyl)-1-benzothien-2-yl)urea], the IC50 is 22 nM on human ACC2 and 130 nM at human ACC1 (setting [1]).

On to `CCCN1C(=O)OC2(CCCN(C3CCN(C(=O)c4c(NC(N)=O)sc5ccccc45)CC3)C2)C1=O` (stereo not shown) [Example 343, N-(3-{[4-(2,4-dioxo-3-propyl-1-oxa-3,7-diazaspiro[4.5]dec-7-yl)piperidin-1-yl]carbonyl}-1-benzothien-2-yl)urea], for which the half-maximal inhibitory concentration (IC50) at human ACC2 is 30 nM; at human ACC1 (setting [1]), 340 nM.

For `CCN1C(=O)OC2(CCCN(C3CCN(C(=O)c4c(NC(=O)NC)sc5ccccc45)CC3)C2)C1=O` (stereo not shown) [Example 347, N-(3-{[4-(3-ethyl-2,4-dioxo-1-oxa-3,7-diazaspiro[4.5]dec-7-yl)piperidin-1-yl]carbonyl)-1-benzothien-2-yl)-N′-methylurea], the values for the half-maximal inhibitory concentration (IC50) on human ACC2 and on human ACC1 (setting [1]) were 34 nM and 310 nM, respectively.

On to `CCCN1CCC2(CCCN(C3CCN(C(=O)c4c(NC(N)=O)sc5ccccc45)CC3)C2)C1=O` (stereo not shown) [Example 352, N-(3-{[4-(1-oxo-2-propyl-2,7-diazaspiro[4.5]dec-7-yl)piperidin-1-yl]carbonyl}-1-benzothien-2-yl)urea], for which the concentration for half-maximal inhibition (IC50) is 41 nM on human ACC2 and 290 nM at human ACC1 (setting [1]).

Turning to `CNC(=O)Nc1sc2ccccc2c1C(=O)N1CCC(N2CCCC3(CCN(C(C)C)C3=O)C2)CC1` (stereo not shown) [Example 360, N-(3-{[4-(2-isopropyl-1-oxo-2,7-diazaspiro[4.5]dec-7-yl)piperidin-1-yl]carbonyl}-1-benzothien-2-yl)-N′-methylurea], the IC50 on human ACC2 is 22 nM; on human ACC1 (setting [1]), 110 nM.

In the case of `CCN1C(=O)CC2(CCCN(C3CCN(C(=O)c4c(NC(=O)NC)sc5ccccc45)CC3)C2)C1=O` (stereo not shown) [Example 363, N-(3-{[4-(2-ethyl-1,3-dioxo-2,7-diazaspiro[4.5]dec-7-yl)piperidin-1-yl]carbonyl}-1-benzothien-2-yl)-N′-methylurea], the 50% inhibitory concentration (IC50) at human ACC2 is 56 nM; at human ACC1 (setting [1]), 340 nM.

Regarding `CC(C)N1C(=O)CC2(CCCN(C3CCN(C(=O)c4c(NC(N)=O)sc5ccccc45)CC3)C2)C1=O` (stereo not shown) [Example 366, N-(3-{[4-(2-isopropyl-1,3-dioxo-2,7-diazaspiro[4.5]dec-7-yl)piperidin-1-yl]carbonyl}-1-benzothien-2-yl)urea], the IC50 at human ACC2 was determined as 18 nM; at human ACC1 (setting [1]), 180 nM.

On to `CCNC(=O)Nc1sc2ccccc2c1C(=O)N1CCC(N2CCCC3(CC(=O)N(C)C3=O)C2)CC1` (stereo not shown) [Example 380, N-ethyl-N′-(3-{[4-(2-methyl-1,3-dioxo-2,7-diazaspiro[4.5]dec-7-yl)piperidin-1-yl]carbonyl}-1-benzothien-2-yl)urea], for which the half-maximal inhibitory concentration (IC50) at human ACC2 came out at 45 nM; on human ACC1 (setting [1]), 210 nM.

Regarding `CC(C)NC(=O)Nc1sc2ccccc2c1C(=O)N1CCC(N2CCCC3(CC(=O)NC3=O)C2)CC1` (stereo not shown) [Example 397, N-(3-{[4-(1,3-dioxo-2,7-diazaspiro[4.5]dec-7-yl)piperidin-1-yl]carbonyl}-1-benzothien-2-yl)-N′-isopropylurea], the IC50 is 39 nM on human ACC2 and 220 nM on human ACC1 (setting [1]).

As to `CCNC(=O)Nc1sc2ccccc2c1C(=O)N1CCC(N2CCCC3(CCN(CC)C3=O)C2)CC1` (stereo not shown) [Example 400, N-ethyl-N′-(3-{[4-(2-ethyl-1-oxo-2,7-diazaspiro[4.5]dec-7-yl)piperidin-1-yl]carbonyl}-1-benzothien-2-yl)urea], the IC50 on human ACC2 is 13 nM; at human ACC1 (setting [2]) it was at most 100 nM; at human ACC1 (setting [1]), 97 nM.

As to `CCNC(=O)Nc1sc2ccccc2c1C(=O)N1CCC(N2CCCC3(C2)N=C(C)N(CC)C3=O)CC1` (stereo not shown) [Example 401, 1-ethyl-3-(3-{[4-(3-ethyl-2-methyl-4-oxo-1,3,7-triazaspiro[4.5]dec-1-en-7-yl)piperidin-1-yl]carbonyl}-1-benzothien-2-yl)urea], the IC50 on human ACC2 was 15 nM; at human ACC1 (setting [2]) it was at most 100 nM; on human ACC1 (setting [1]), 73 nM.
